Where two headings read alike, the source gives them in different places.
Assays:
[1] = test system: chs3∆ (chs3::KanMX in BY4741); assay: MIC in compound library screening assay, chs3∆ yeast; format: cell-based, S. cerevisiae
Method: (§1) The compound library is a combination of synthetic compounds from Enamine (Kyiv, Ukraine) and Life Chemicals Inc. (Burlington, ON, Canada) and natural products from the Institute of Medicinal Biotechnology. We used WT, chs3∆, and fks1∆ yeast strains to screen new antifungal agents. The screening assays were performed in 96-well plates in a final volume of 200 μL. Fresh yeast cells (OD600 = 0.8) were diluted to 10^5 CFU/mL in YPD medium. We added 198 μL of diluted culture and 2 μL of compounds into each well, and the final concentration of compounds was 100 μg/mL with 1% DMSO. The yeast cells were incubated at 30 °C for 24 hours to assess the growth. For the compounds that inhibited the growth of all three yeast strains, they were serially diluted to determine the minimal inhibit concentration (MIC) with the same method. MIC endpoints were defined as the lowest concentration of drugs that cause a 90% decrease in growth compared to the drug-free control (MIC90).

[2] = test system: fks1∆ (fks1::KanMX in BY4741); assay: MIC in compound library screening assay, fks1∆ yeast; format: cell-based, S. cerevisiae
Method: as §1

[3] = test system: chitin content in WT yeast cells; assay: Chitin content assay (Morgan–Elson method); format: cell-based, S. cerevisiae; settings: 16 hours at 30 °C
Method: The chitin content was assessed by measuring the level of D-glucosamine according to the method described by Morgan–Elson. WT yeast cells were grown to 10^5 CFU/ml in YPD medium and then treated with IMB-D10 (12.5 μg/mL), IMB-F4 (25 μg/mL), or DMSO (0.25%) for 16 hours at 30 °C. Cells were collected by centrifugation at 1500 g for 5 min and then freeze-dried after being washed twice with deionized water. Five-milligram sample was weighted and hydrolyzed by H2SO4 at 100 °C for 4 hours. The hydrolysates were centrifuged at 12,000 rpm for 5 min. We removed 100 μL supernatant to another tube and adjusted pH value to 3 with 2 M KOH; then the volume was set to 1 mL with water. One milliliter acetylacetone (7% acetylacetone in 1 M Na2CO3) was added into the tube and incubated for 25 min at 100 °C. The 1.5 mL Ehrlich^’s reagent and 1.5 mL absolute ethyl alcohol were added into the tube for further incubation for 1 hour at 60 °C. The OD520 was determined with BioMet 3S UV-Visible Spectrophotometer (Thermo Scientific^TM, Waltham, MA, USA). N-acetyl-D-glucosamine was used to establish a standard curve for the quantification of chitin levels. All reactions were performed in triplicate.

C. albicans ATCC10231 = assay: Growth inhibition, broth microdilution MIC; format: cell-based, Candida albicans
Method: The experiments were carried out using a broth microdilution protocol modified from the Clinical and Laboratory Standards Institute M-27A methods. WT S. cerevisiae and C. albicans were grown to mid-log phase in YPD medium. The cells were collected by centrifugation at 1500 g for 5 min and diluted with RPMI 1640 medium to the density of 1 × 10^4 CFU/mL. Then, the samples with various concentrations of compounds were dispensed at 0.2 mL/well in sterile 96-well microplates. The final concentrations of compounds ranged from 3.125 to 100 μg/mL with serial two-fold dilution. After incubation at 30 °C (S. cerevisiae) or 35 °C (C. albicans) for 24 hours, the minimal inhibitory concentration (MIC) was determined by measuring the optical density of the wells with cell cultures. The antifungal agent caspofungin was used as a positive control. All tests were performed in triplicate.

WT yeast cells (BY4741) = assay: Growth curve assay (OD600 over time); format: cell-based, S. cerevisiae
Method: Fresh cell cultures of WT yeast S. cerevisiae and Candida albicans ATCC10231 (OD600 = 0.8) were diluted in YPD medium (OD600 = 0.05). Then, IMB-D10 and IMB-F4 were added at concentrations ranging from 12.5 to 100 μg/mL. The cells were collected at different time points, and OD600 was measured with Multi-label Reader. Three experiments were performed independently, and the mean ± SD was calculated.

[4] = test system: Escherichia coli ATCC 25922; assay: Growth inhibition of bacteria; format: cell-based; settings: Escherichia coli ATCC 25922, at 100 μg/mL
Mycobacterium smegmatis = assay: Growth inhibition of bacteria; format: cell-based; settings: at 100 μg/mL
Chs1 = assay: iTRAQ protein level of chitin synthase; format: cell-based, S. cerevisiae; settings: 25 μg/mL, 16 hours
Method: (§2) WT cells were grown to 10^5 CFU/mL in YPD medium and then treated with 25 μg/mL compounds or 0.25% DMSO for 16 hours at 30 °C. The cells were collected by centrifugation at 1500 g for 5 min and then stored at −80 °C. The frozen samples were grounded to a fine powder with liquid nitrogen and then transferred to an Eppendorf tube with phenol extraction buffer containing 1 mM Phenylmethanesulfonyl fluoride (PMSF). The samples were lysed with sonication, and proteins were extracted with phenol and then precipitated with ammonium acetate/methanol. The methanol was excluded by acetone, and the precipitates were collected by centrifugation at 12,000 g for 10 min at 4 °C. The precipitates were dried at room temperature for 3 min and dissolved in SDS lysis buffer for 2 hours. The samples were further centrifuged at 12,000 g for 10 min, and the collected supernatants were centrifuged again to remove precipitation completely. After the determination of protein concentration using Pierce^TM BCA Protein Assay kit (Thermo Scientific, Rockford, IL, USA), the protein samples were aliquoted for storage at −80 °C.
(§3) The Filter Aided Sample Preparation (FASP) digestion was performed according to a universal sample preparation method for proteome analysis. Peptides were labeled by iTRAQ using iTRAQ Reagents Multiplex Kit (AB SCIEX, Framingham, MA, USA) and then were fractionated by SCX chromatography using the AKTA Purifier system (GE Healthcare, Stockholm, Sweden). LC-MS/MS analysis was performed on Nano LC-1D plus (Eksigent, San Francisco, CA, USA) that was coupled to Triple TOF 6600 spectrometer (AB SCIEX, Framingham, MA, USA) for 50 min. The mass spectrometer was operated in positive ion mode. The MS/MS data were analyzed for protein identification and quantification using ProteinPilot software (v.5). The local false discovery rate was estimated with the integrated PSPEP tool in the ProteinPilot Software to be 1% after searching against a decoy concatenated UniProt S. cerevisiae protein database. For a protein showing differential expression, it must have been identified and quantified with at least one significant peptide, and the p-values of the proteins quantitation should be less than 0.05 and fold change ≥1.5.

Chs2 = assay: iTRAQ protein level of chitin synthase; format: cell-based, S. cerevisiae; settings: 25 μg/mL, 16 hours
Method: as §2, §3

Chs3 = assay: iTRAQ protein level of chitin synthase; format: cell-based, S. cerevisiae; settings: 25 μg/mL, 16 hours
Method: as §2, §3

Sequence of Chs2 (P14180 whole entry): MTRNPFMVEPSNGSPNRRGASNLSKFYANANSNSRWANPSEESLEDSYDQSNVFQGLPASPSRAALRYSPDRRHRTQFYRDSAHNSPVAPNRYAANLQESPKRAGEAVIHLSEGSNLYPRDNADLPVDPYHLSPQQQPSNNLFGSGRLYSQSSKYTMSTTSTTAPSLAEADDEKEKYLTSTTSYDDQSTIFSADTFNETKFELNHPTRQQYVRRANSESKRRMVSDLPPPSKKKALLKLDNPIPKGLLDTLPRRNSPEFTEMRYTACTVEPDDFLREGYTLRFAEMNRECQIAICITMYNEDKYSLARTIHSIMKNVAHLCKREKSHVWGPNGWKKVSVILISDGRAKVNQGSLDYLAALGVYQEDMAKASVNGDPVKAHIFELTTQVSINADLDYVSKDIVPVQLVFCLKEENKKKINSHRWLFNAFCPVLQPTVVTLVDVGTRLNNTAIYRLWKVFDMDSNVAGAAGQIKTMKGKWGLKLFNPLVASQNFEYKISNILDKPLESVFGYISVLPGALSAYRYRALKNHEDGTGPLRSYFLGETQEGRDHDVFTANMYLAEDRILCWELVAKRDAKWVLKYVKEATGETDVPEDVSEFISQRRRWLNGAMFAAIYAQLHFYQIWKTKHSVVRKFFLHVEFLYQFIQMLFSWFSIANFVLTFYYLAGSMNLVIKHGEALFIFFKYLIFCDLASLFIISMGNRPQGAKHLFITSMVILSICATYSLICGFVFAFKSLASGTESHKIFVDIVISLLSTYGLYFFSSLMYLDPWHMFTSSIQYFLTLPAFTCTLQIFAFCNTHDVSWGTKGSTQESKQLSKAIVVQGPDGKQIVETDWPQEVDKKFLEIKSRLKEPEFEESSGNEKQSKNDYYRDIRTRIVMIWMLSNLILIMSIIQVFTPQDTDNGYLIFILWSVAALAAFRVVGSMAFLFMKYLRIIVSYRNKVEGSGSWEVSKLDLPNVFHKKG
Sequence of Chs3 (P29465 whole entry): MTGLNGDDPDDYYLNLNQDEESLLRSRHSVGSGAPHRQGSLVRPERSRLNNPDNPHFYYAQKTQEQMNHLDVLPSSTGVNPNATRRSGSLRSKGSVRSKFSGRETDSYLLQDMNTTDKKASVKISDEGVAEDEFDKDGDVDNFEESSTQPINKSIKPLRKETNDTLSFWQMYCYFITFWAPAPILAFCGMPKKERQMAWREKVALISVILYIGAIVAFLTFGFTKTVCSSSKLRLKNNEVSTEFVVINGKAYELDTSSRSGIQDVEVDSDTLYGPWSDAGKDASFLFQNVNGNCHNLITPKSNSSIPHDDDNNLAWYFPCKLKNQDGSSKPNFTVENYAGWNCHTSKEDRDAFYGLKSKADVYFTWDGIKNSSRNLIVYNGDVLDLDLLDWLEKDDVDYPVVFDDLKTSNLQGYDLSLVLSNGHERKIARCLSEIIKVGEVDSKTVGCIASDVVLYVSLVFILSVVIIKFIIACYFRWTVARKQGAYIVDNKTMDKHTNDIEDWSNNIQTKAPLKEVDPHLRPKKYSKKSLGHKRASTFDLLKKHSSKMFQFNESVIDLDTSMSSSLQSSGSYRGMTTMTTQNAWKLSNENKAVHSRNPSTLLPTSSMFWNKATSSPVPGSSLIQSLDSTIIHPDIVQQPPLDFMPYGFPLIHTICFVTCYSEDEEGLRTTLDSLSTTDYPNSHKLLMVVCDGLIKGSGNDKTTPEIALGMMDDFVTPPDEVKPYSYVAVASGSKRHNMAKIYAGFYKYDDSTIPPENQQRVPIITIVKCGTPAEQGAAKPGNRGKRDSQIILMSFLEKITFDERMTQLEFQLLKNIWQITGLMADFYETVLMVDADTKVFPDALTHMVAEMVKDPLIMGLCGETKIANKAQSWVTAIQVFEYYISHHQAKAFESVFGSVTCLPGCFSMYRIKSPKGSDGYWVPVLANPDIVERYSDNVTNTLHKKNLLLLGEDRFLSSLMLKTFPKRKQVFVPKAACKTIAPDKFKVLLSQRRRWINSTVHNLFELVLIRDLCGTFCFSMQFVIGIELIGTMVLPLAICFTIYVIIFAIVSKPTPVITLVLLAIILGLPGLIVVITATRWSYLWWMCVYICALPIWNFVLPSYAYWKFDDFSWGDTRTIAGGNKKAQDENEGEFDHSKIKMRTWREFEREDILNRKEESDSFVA
Sequence of Chs1 (P08004 whole entry): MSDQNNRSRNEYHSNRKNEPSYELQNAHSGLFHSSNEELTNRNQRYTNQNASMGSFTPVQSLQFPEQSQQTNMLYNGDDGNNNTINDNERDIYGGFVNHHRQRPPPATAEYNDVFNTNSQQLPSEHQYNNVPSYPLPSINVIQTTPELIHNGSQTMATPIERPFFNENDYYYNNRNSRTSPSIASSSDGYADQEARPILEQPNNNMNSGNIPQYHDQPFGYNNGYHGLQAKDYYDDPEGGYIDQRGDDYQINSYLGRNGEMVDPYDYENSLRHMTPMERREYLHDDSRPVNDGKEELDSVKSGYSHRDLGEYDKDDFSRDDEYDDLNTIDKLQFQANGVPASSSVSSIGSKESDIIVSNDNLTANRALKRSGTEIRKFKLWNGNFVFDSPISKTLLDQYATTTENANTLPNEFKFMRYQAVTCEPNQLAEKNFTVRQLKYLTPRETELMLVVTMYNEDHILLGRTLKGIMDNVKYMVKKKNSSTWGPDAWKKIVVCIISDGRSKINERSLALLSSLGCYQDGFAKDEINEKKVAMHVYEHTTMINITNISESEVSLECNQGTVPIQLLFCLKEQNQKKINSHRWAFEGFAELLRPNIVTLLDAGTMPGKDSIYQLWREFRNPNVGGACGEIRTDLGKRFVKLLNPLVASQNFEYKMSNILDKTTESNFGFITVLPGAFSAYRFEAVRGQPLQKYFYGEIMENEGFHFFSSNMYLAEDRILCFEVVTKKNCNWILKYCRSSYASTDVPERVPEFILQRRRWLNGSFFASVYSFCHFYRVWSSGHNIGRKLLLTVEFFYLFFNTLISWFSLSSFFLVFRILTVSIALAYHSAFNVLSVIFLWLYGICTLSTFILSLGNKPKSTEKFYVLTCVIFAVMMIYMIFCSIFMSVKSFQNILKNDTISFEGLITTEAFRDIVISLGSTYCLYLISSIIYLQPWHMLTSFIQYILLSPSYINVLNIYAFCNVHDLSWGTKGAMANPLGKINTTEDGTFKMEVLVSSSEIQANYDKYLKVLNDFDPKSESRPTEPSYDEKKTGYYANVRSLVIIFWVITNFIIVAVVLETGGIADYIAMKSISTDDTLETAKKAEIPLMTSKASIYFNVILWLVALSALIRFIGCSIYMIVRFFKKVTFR

| Compound | MIC ([1]; Saccharomyces cerevisiae, 24 h, read-out: MIC, chs3∆, chs3∆ mutant, YPD, 30 °C, 24 hours, MIC90) [µg/mL] | MIC ([2]; Saccharomyces cerevisiae, 24 h, read-out: MIC, fks1∆) [µg/mL] | relative chitin content compared to cells treated with DMSO ([3]; 12.5 μg/mL) | relative chitin content compared to cells treated with DMSO ([3]; 25 μg/mL) [%] | MIC (C. albicans ATCC10231; Candida albicans, read-out: MIC) [µg/mL] | growth of yeast cells over time (OD) (WT yeast cells (BY4741)) | growth inhibition [4] | growth inhibition (Mycobacterium smegmatis) | relative abundance of Chs1 compared with cells treated with DMSO (Chs1) | relative abundance of Chs2 compared with cells treated with DMSO (Chs2) | relative abundance of Chs3 compared with cells treated with DMSO (Chs3) | MIC, chs3∆ ([1]; chs3∆ mutant, YPD, 30 °C, 24 hours, MIC90) [µg/mL] | MIC, fks1∆ ([2]; fks1∆ mutant, YPD, 30 °C, 24 hours, MIC90) [µg/mL] | MIC (C. albicans ATCC10231) [µg/mL] |
| --- | --- | --- | --- | --- | --- | --- | --- | --- | --- | --- | --- | --- | --- | --- |
| COc1cc(OC)cc(C(=O)N(CCn2ccnc2)c2nc3ccc(OC)cc3s2)c1 [IMB-F4, N-(2-(1H-imidazol-1-yl)ethyl)-3,5-dimethoxy-N-(6-methoxybenzo[d]thiazol-2-yl)benzamide] | > 100 | 50 | 46.09 ± 8.01% | 27 ± 5.33 | > 100 | dose-dependent slow growth | did not inhibit the growth | did not inhibit the growth | remained similar | remained similar | remained similar | – | – | – |
| N-(2-(diethylamino) ethyl)-N-(7-hydroxy-4-methoxybenzo[d]thiazol -2-yl)-2-oxo-2H-chromene-3-carboxamide [IMB-D10] | – | – | did not reduce the chitin level significantly | 47.61 ± 6.79 | – | dose-dependent slow growth | did not inhibit the growth | did not inhibit the growth | 22 ± 5.10% | 21.33 ± 6.18% | 18.33 ± 1.89% | 100 | 25 | 100 |

Source: paper PMC6749524, “Identification of New Antifungal Agents Targeting Chitin Synthesis by a Chemical-Genetic Method” (Molecules, 2019)
